Measurements from patent US10358453B2, “Antiviral compounds” (priority 2015, dated 2019).

What was measured:
[1] = Cytotoxicity determination (CCK-8, without addition of virus); type: cell-based; conditions: human, HEp-2 cells (uninfected), no virus, Table C = greater than 100 μM, Table D = equal to or less than 100 μM and greater than 10 μM
Summary of the method: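 HEp-2 cells, no virus, exposed to compound from 100 μM in ½ serial dilutions (7 points, duplicate, 1% DMSO) for 5 days at 37° C, 5% CO2. Viability by CCK-8 (3-4 h) optical density; CC50 calculated.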

recombinant RSV complex = recombinant RSV complex (Human respiratory syncytial virus A, UniProt P28887); experiment: RSV polymerase inhibition assay; type: biochemical; conditions: 10 nM recombinant RSV complex, 2 h at 30° C.; Table E = <1 μM, Table F = <50 μM; read-out: IC50
Summary of the method: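 10 nM recombinant RSV polymerase complex in Tris-HCl pH7.5, 6 mM MgCl2 with RNA oligonucleotides and radionucleotides, incubated 2 h at 30° C with rising inhibitor concentrations. Stopped with EDTA; radiolabelled RNA product counted by scintillation; IC50 from sigmoidal non-linear regression.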

[2] = system: RSV subgenomic replicon 395 HeLa and APC126; experiment: RSV subgenomic replicon assay (Renilla luciferase); type: cell-based; conditions: human respiratory syncytial virus; RSV replicon cells (395 HeLa 7 days or APC126 3 days); Table G = less than 1 μM, Table H = equal to or higher than 1 μM and less than 50 μM
Summary of the method: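 Replicon cells (RSV with SH, G, F replaced by blasticidin resistance; 395 HeLa or BHK-derived APC126) exposed to 9-point 1:3 compound dilutions in 1% DMSO for 7 days (395 HeLa) or 3 days (APC126) at 37 °C. Renilla luciferase luminescence read; EC50 is concentration cutting signal 50% versus untreated cells.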

Sequence of recombinant RSV complex (P28887 whole entry): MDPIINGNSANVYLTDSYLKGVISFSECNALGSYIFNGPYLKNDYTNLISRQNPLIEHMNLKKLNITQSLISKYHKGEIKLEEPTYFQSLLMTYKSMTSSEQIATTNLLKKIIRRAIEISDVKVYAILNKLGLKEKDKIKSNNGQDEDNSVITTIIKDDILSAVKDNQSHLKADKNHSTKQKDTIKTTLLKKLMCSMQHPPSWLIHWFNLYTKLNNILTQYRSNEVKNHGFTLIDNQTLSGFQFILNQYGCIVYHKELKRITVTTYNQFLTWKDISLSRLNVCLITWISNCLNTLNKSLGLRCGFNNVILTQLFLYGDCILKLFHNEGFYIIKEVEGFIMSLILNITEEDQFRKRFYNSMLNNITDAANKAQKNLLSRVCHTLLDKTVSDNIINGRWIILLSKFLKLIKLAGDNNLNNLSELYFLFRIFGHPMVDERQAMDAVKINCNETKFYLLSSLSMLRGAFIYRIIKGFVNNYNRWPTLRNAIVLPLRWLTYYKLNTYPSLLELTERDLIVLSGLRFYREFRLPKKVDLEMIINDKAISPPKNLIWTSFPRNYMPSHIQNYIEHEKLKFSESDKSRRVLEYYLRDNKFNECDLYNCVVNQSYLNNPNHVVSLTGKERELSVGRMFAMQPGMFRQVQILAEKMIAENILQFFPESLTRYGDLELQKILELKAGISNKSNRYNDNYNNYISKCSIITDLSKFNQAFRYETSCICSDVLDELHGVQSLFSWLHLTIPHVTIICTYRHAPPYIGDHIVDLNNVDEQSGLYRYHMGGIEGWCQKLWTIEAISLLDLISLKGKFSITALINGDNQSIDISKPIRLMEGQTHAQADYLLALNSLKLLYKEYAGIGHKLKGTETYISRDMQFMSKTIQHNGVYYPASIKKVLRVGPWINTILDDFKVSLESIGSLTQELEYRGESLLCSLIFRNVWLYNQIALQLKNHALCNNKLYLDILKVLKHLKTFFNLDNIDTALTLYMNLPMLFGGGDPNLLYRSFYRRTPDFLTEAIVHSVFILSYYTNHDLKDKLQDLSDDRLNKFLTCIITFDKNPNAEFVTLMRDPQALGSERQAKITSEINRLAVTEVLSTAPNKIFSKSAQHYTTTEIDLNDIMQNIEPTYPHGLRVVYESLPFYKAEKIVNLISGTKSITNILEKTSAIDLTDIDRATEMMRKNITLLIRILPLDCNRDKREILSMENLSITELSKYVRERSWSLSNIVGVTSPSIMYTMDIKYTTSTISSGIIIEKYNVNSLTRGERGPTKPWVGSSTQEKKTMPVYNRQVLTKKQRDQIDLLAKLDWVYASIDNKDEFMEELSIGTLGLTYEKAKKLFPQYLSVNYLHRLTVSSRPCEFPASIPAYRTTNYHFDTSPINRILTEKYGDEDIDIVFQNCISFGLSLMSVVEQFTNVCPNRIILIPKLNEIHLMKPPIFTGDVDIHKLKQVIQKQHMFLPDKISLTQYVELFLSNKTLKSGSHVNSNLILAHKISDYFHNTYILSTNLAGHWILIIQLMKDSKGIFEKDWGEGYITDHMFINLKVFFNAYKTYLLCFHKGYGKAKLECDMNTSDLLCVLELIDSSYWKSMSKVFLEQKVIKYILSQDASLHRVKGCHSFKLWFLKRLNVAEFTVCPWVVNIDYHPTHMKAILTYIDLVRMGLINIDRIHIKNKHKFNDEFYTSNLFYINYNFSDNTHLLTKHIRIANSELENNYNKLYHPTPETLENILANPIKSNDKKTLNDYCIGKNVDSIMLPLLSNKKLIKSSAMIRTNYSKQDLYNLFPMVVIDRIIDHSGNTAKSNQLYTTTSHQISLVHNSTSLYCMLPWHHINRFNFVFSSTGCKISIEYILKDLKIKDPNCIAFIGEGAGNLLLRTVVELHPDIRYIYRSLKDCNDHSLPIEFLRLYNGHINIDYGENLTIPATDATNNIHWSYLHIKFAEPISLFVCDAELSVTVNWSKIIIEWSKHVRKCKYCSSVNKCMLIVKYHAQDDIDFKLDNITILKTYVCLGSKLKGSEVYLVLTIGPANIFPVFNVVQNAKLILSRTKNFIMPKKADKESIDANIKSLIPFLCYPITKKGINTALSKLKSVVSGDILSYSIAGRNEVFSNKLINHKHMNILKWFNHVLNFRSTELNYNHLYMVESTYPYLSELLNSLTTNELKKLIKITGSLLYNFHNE
Sequence of recombinant RSV complex (P03421 whole entry, further chain): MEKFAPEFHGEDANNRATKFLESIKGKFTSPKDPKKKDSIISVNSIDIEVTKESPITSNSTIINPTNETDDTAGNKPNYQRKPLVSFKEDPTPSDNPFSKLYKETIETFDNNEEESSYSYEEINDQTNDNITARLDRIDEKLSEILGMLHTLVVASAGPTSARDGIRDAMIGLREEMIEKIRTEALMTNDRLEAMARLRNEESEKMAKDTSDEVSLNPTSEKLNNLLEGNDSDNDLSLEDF

Compound | CC50 at 5 days [1] | IC50 (recombinant RSV complex) | EC50 [2]
C[C@@]1(N)CNc2c1cc([C@](O)(CNC(=O)c1ccc(OCCO)c(OC3CC3)c1)C(F)(F)F)nc2-c1ccc(F)cc1 [Compound 61] | 10 to 100 µM | < 1 µM | < 1 µM
COc1cc(C(=O)NCC(O)(c2cc3c(c(-c4ccc(F)cc4)n2)OCC3(C)N)C(F)(F)F)ccc1NCCO (stereo not drawn) [Compound 30] | 10 to 100 µM | < 1 µM | < 1 µM
COc1cc(C(=O)NCC(O)(c2cc(C3(C)CCNCC3)cc(-c3ccc(F)cc3)n2)C(F)(F)F)ccc1OCCO (stereo not drawn) [Compound 117] | 10 to 100 µM | < 50 µM | 1 to 50 µM
C[C@@]1(N)COc2c1cc([C@@](O)(CNC(=O)c1ccc(OC3CC3)c(OCCO)c1)C(F)(F)F)nc2-c1ccc(F)cc1 [Compound 60] | 10 to 100 µM | < 1 µM | < 1 µM
COc1cc(C(=O)NCC(O)(c2cc3c(c(-c4ccc(F)cc4)n2)OCCC3(N)C2CC2)C(F)(F)F)ccc1OC[C@@H](C)O (stereo partly drawn) [Compound 92] | 10 to 100 µM | < 1 µM | < 1 µM
COc1cc(C(=O)NC[C@](O)(c2cc3c(c(-c4ccc(F)cc4)n2)OCC[C@]3(C)N)C(F)(F)F)ccc1OC[C@@H](C)O (single isomer, unassigned) [Compound 87] | > 100 µM | < 1 µM | < 1 µM
COc1cc(C(=O)NC[C@@](O)(c2cc3c(c(-c4ccc(F)cc4)n2)NC[C@@]3(C)N)C(F)(F)F)ncc1OCCO [Compound 75] | 10 to 100 µM | < 1 µM | < 1 µM
COc1cc(C(=O)NCC(O)(c2cc(C3CCNCC3)cc(-c3ccc(F)cc3)n2)C(F)(F)F)ccc1OCCO (stereo not drawn) [Compound 18] | 10 to 100 µM | < 1 µM | < 1 µM
CC1(N)COc2c1cc(C(O)(CNC(=O)c1ccc(CCO)c(OC3CC3)c1)C(F)(F)F)nc2-c1ccc(F)cc1 (stereo not drawn) [Compound 49] | 10 to 100 µM | < 1 µM | < 1 µM
COc1cc(C(=O)NC[C@@](O)(c2cc3c(c(-c4ccc(F)cc4)n2)N(C)C[C@@]3(C)N)C(F)(F)F)ccc1OCCO [Compound 79] | 10 to 100 µM | < 1 µM | < 1 µM
COc1cc(C(=O)NCC(O)(c2cc3c(c(-c4ccc(F)cc4)n2)OCC3(C)N)C(F)(F)F)ccc1OC(C)CO (stereo not drawn) [Compound 21] | 10 to 100 µM | < 1 µM | < 1 µM
C[C@@]1(N)COc2c1cc([C@](O)(CNC(=O)c1ccc(OCCO)c(OC3CC3)c1)C(F)(F)F)nc2-c1ccc(F)cc1 [Compound 55] | 10 to 100 µM | < 1 µM | < 1 µM
COc1cc(C(=O)NCC(O)(c2cc(N3CCNCC3)cc(-c3ccc(F)cc3)n2)C(F)(F)F)ccc1OCCO (stereo not drawn) [Compound 138] | 10 to 100 µM | < 1 µM | 1 to 50 µM
C[C@@]1(N)CNc2c1cc([C@](O)(CNC(=O)c1ccc3c(c1)CC(=O)N3)C(F)(F)F)nc2-c1ccc(F)cc1 [Compound 76] | 10 to 100 µM | < 1 µM | < 1 µM
CC1(N)COc2c1cc(C(O)(CNC(=O)c1ccc(OCCO)c(OC3CC3)c1)C(F)(F)F)nc2-c1ccc(F)cc1 (stereo not drawn) [Compound 24] | 10 to 100 µM | < 1 µM | < 1 µM
COc1cc(C(=O)NCC(N)(c2cc(C(C)(C)N)cc(-c3ccc(F)cc3)n2)C(F)(F)F)ccc1OCCO (stereo not drawn) [Compound 40] | > 100 µM | < 1 µM | < 1 µM

Compound | CC50 at 5 days [1] | IC50 (recombinant RSV complex) | EC50 [2]
COc1cc(C(=O)NC[C@@](O)(c2cc3c(c(-c4ccc(F)cc4)n2)OC[C@@]3(C)N)C(F)(F)F)cc2ccc(C(C)O)nc12 (stereo partly drawn) [Compound 91] | 10 to 100 µM | < 1 µM | < 1 µM
COc1cc(C(=O)NC[C@@](O)(c2cc3c(c(-c4ccc(F)cc4)n2)OC[C@]3(N)C2CC2)C(F)(F)F)ccc1OC[C@@H](C)O (single isomer, unassigned) [Compound 106] | 10 to 100 µM | < 1 µM | < 1 µM
COc1cc(C(=O)NC[C@@](O)(c2cc3c(c(-c4ccc(F)cc4)n2)OC[C@@]3(C)N)C(F)(F)F)cc(OC)c1CCCO [Compound 65] | 10 to 100 µM | < 1 µM | < 1 µM
COc1ccc(C(=O)NCC(O)(c2cc(C(C)(C)N)cc(-c3ccc(F)cc3)n2)C(F)(F)F)cc1OCCO (stereo not drawn) [Compound 37] | > 100 µM | < 1 µM | < 1 µM
COc1cc(C(=O)NC[C@@](O)(c2cc3c(c(-c4ccc(F)cc4)n2)OC[C@@]3(C)N)C(F)(F)F)cc2nc[nH]c12 [Compound 95] | 10 to 100 µM | < 1 µM | < 1 µM
COc1cc(OCCO)cc(C(=O)NC[C@@](O)(c2cc3c(c(-c4ccc(F)cc4)n2)OC[C@@]3(C)N)C(F)(F)F)c1 [Compound 68] | 10 to 100 µM | < 1 µM | < 1 µM
COc1cc(C(=O)NC[C@@](O)(c2cc3c(c(-c4ccc(F)cc4)n2)NC[C@@]3(C)N)C(F)(F)F)cc2cc[nH]c12 [Compound 83] | 10 to 100 µM | < 1 µM | < 1 µM
C[C@@]1(N)COc2c1cc(C(O)(CNC(=O)c1ccc3[nH]ccc3c1)C(F)(F)F)nc2-c1ccc(F)cc1 (stereo partly drawn) [Compound 16] | 10 to 100 µM | < 1 µM | < 1 µM
Cn1nc(C(F)(F)F)cc1C(=O)NCC(O)(c1cc2c(c(-c3ccc(F)cc3)n1)OCC2(C)N)C(F)(F)F (stereo not drawn) [Compound 114] | 10 to 100 µM | < 1 µM | < 1 µM
COc1ccc(C(=O)NCC(O)(c2cc3c(c(-c4ccc(F)cc4)n2)OCC3(C)N)C(F)(F)F)cc1OC1CC1 (stereo not drawn) [Compound 23] | 10 to 100 µM | < 1 µM | < 1 µM
CC(C)(N)c1cc(-c2ccc(F)cc2)nc([C@@](O)(CNC(=O)c2ccc(OCCO)c(OC3CC3)c2)C(F)(F)F)c1 [Compound 57] | 10 to 100 µM | < 1 µM | < 1 µM
C[C@@]1(N)COc2c1cc([C@](O)(CNC(=O)c1cc3c(c(OC(F)F)c1)NC(=O)C3)C(F)(F)F)nc2-c1ccc(F)cc1 [Compound 98] | 10 to 100 µM | < 1 µM | < 1 µM
C[C@@]1(N)CNc2c1cc([C@](O)(CNC(=O)c1ccc(OC3CC3)c(OC3CC3)c1)C(F)(F)F)nc2-c1ccc(F)cc1 [Compound 62] | 10 to 100 µM | < 50 µM | < 1 µM
CC(C)(N)c1cc(-c2ccc(F)cc2)nc(C(N)(CNC(=O)c2ccc(OC3CC3)c(OCCO)c2)C(F)(F)F)c1 (stereo not drawn) [Compound 41] | 10 to 100 µM | < 1 µM | < 1 µM
COc1cc(C(=O)NC[C@@](O)(c2cc3c(c(-c4ccc(F)cc4)n2)OC[C@@]3(C)N)C(F)(F)F)ccc1-c1nc(C)no1 [Compound 19] | 10 to 100 µM | < 1 µM | < 1 µM
COc1cc(C(=O)NCC(O)(c2cc3c(c(-c4ccc(F)cc4)n2)OCC3(C)N)C(F)(F)F)ccc1OC(C)(C)CO (stereo not drawn) [Compound 125] | 10 to 100 µM | < 1 µM | < 1 µM
